Molecular target: T1, acetylcholinesterase (AChE)
T1 construct: gene ace-1; native enzyme in crude whole-worker homogenate (Triton X-100 supernatant), not purified; the docking model is of Coptotermes formosanus, not this enzyme
Assay: Ellman assay, crude termite homogenate
Assay type: biochemical, Reticulitermes dabieshanensis
Settings: acetylthiocholine iodide (10 mM stock), DTNB, Tris-HCl pH 7.8, 30 min, inhibitor in alcohol

Row | SMILES | IC50 ^a (95% CI ^b) (0.5-6.0 μL/mL) | IC50 ^a (95% CI ^b) (1.0-20.0 μL/mL (value outside tested range))
1 | C=C(C)C1CC=C(C)C(=O)C1 (stereo not drawn) [carvone] | 1.922 (1.131–3.308) μL/mL | –
2 | C=CC(C)(O)CCC=C(C)C (stereo not drawn) [linalool] | 0.136 (0.066–0.218) μL/mL | –
3 | CC(C)[C@@H]1CC[C@@H](C)C[C@H]1O [menthol] | – | 76.790 (36.58–166.367) μL/mL
